# Data: patent US9033962B2, “Photodynamic therapy including light pretreatment” (Case Western Reserve University, priority 2010, dated 2015)
# What was measured:
# [1] = Pc 4 fluorescence after topical application on mouse ear skin, with or without an initial light dose; type: in vivo; details: Pc 4 0.1 mg/mL topical on mouse ear skin, initial small light dose 50 J/cm2, versus 15 minutes of topical application without light
# Description: FIG. 1 is a pair of photographs showing that photoirradiation of mouse ear skin to which Pc 4 had been topically applied facilitates Pc 4 penetration into the skin.
# (§1) When treating skin, the area of skin can be covered with an opaque dressing during the interval of time between the first and second photoirradiation to prevent further activation of the photosensitizer by ambient light. While not intending to be bound by theory, the first photoirradiation may increase the ability of the photosensitizing agent to penetrate tissue as a result of breaking up aggregates of the photosensitizing agent and/or by disrupting the tissue barrier as a result of the release of reactive oxygen species. Accordingly, this first photoirradiation can also be referred to as the disruptive photoirradiation, or light pretreatment. The ability of light pretreatment to facilitate the penetration of photosensitizer to lower levels of skin is illustrated by FIGS. 1 and 2.
# [2] = Confocal imaging of skin sections from psoriasis patients with lesions treated with Pc 4 versus Pc 4 plus red light; type: in vivo, human; details: for location of Pc 4 fluorescence in skin: psoriasis lesions
# Procedure: FIG. 2 includes 4 sets of images obtained from confocal imaging of skin sections from two psoriasis patients with lesions to which Pc 4 (0.1 mg/ml) versus Pc 4 (0.1 mg/ml) plus 100 J/cm2 of red light (675 nm) was applied.
# as §1
# A variety of methods are available to determine the amount of energy and/or time necessary for an effective amount of the photosensitizer to reach the desired tissue level, such as a lower level of the skin, under the conditions being used. Such methods can be referred to as photosensitizer localization assays. For example, a biopsy can be obtained after administration of the photosensitizer from which the photosensitizer is chemically extracted and quantified using conventional analytic techniques such as UV spectrophotometry. The photosensitizer (e.g., Pc 4) can also be identified from biopsy samples using confocal imaging of the fluorescence of the photosensitizer either with or without the use of additional labels targeted at specific intracellular components (e.g., DAPI, mitotracker). Such techniques can be helpful to determine therapeutically effective doses, and also to evaluate non-responding subjects for possible poor photosensitizer permeation through the skin or other complications.
# [3] = Time interval for delivery of photosensitizer through skin, with or without first photoirradiation; type: in vivo; details: after a first photoirradiation
# Description: Once the first photoirradiation has been delivered to the area of tissue, a sufficient interval of time should be allowed to pass for an effective amount of the photosensitizer to further penetrate the tissue. In the case of skin tissue, a sufficient interval of time is preferably provided to allow the photosensitizer to reach the lower levels of skin such as the basal epidermis and/or the papillary dermis, which is the upper layer of the dermis immediately beneath the epidermis. The particular layer of skin targeted can vary depending on the disease being treated. Examples of sufficient intervals include 1 hour, 30 minutes, 10 minutes, 5 minutes, or any other interval within this range. In addition to providing sufficient time for the photosensitizer to penetrate the skin to the desired level, care should also be taken to avoid providing too much time, which can result in passage of significant amounts of the photosensitizer beyond the intended site.
# [4] = human skin 1-2 hours after Pc 4 applied, no light pretreatment; cited from earlier work
# [5] = used topically on skin lesions; cited from earlier work
smiles,measurement,setting,value
"CN(C)CCC[Si](C)(C)O[Si]1(O)n2c3c4ccccc4c2N=C2N=C(N=c4c5ccccc5c(n41)=NC1=NC(=N3)c3ccccc31)c1ccccc12 (stereo not shown) [Pc 4, HOSiPcOSi(CH3)2(CH2)3N(CH3)2]",depth of Pc 4 in skin (Pc 4 fluorescence),[1],enhanced
same,location of Pc 4 fluorescence in skin,"[2]; Pc 4 0.1 mg/ml alone, after more than one hour of application",limited to the stratum corneum
same,location of Pc 4 fluorescence in skin,[2]; Pc 4 0.1 mg/ml for 1 hour followed by 100 J/cm2 red light (675 nm),not only in the stratum corneum but also in the epidermis and upper dermis
same,Pc 4 fluorescence in the cells within the epidermis and upper dermis (higher magnification),"[2]; Pc 4 + light (100 J/cm2, 675 nm)",there is indeed Pc 4 fluorescence
same,Pc 4 fluorescence in the cells within the epidermis and upper dermis (higher magnification),[2]; Pc 4 alone,not observed
same,absorption of Pc 4 into the epidermis and upper dermis,[2]; initial dose of light on psoriatic lesions in humans to which Pc 4 has been applied,facilitates the absorption
same,time interval needed for delivery through skin,[3],fifteen
same,absorption in the epidermis,[4],significant absorption
same,absorption in the papillary dermis,[4],minimal to no absorption
same,safety profile,[5],excellent safety profile
